Where “and” joins values, the source holds several entries; their conditions need not be identical. Identical values can stand only once.
Columns and labels:
Assay type in all cases: cell-based
[1] = test system: Salmonella typhimurium TA1537; assay: Ames test (reverse mutation test), TA1537
Protocol: (§1) The solvent used herein was dimethyl sulfoxide (DMSO, 100 µL/plate).
(§2) The mixtures were preincubated at 37° C. for 20 minutes while shaking. […] Two plates per treatment were used.

[2] = test system: Salmonella typhimurium TA98; assay: Ames test (reverse mutation test), TA98
Protocol: as §1, §2

[3] = test system: Salmonella typhimurium TA100; assay: Ames test (reverse mutation test), TA100
Protocol: as §1, §2

[4] = test system: Salmonella typhimurium TA1535; assay: Ames test (reverse mutation test), TA1535
Protocol: as §1, §2

Escherichia coli WP2uvrA = assay: Ames test (reverse mutation test), WP2uvrA; settings: WP2uvrA
Protocol: as §1, §2

Compound: COc1ccc2nc3cc(Cl)ccc3c(NCCCNCCCl)c2c1 [ICR-191]
- Number of revertant colonies TA1537 ([1]; S9 Mix -, dose 1.0 µg/plate, positive control): 1448 and 1435 and 1413 and 1096 and 1397
- Number of revertant colonies ([1]; TA1537, -S9 mix, 1.0 µg/plate (positive control)): 1170 and 1131

Compound: CC(C)(C)Oc1cccc(-c2cc(N)nn2-c2ccccc2)c1 [Metabolite C]
- Number of revertant colonies ([2]; TA98, +S9 mix, 2.34 µg/plate): 38
- Number of revertant colonies ([2]; TA98, +S9 mix, 4.69 µg/plate): 36
- Number of revertant colonies ([2]; TA98, +S9 mix, 9.38 µg/plate): 73
- Number of revertant colonies ([2]; TA98, +S9 mix, 18.8 µg/plate): 107
- Number of revertant colonies ([2]; TA98, +S9 mix, 37.5 µg/plate): 133
- Number of revertant colonies ([2]; TA98, +S9 mix, 75 µg/plate): 153
- Number of revertant colonies ([2]; TA98, +S9 mix, 150 µg/plate): 133
- Number of revertant colonies ([2]; TA98, +S9 mix, 300 µg/plate): 138
- Number of revertant colonies ([2]; TA98, -S9 mix, 2.3 µg/plate): 14
- Number of revertant colonies ([2]; TA98, -S9 mix, 6.9 µg/plate): 15
- Number of revertant colonies ([2]; TA98, -S9 mix, 21 µg/plate): 17
- Number of revertant colonies ([2]; TA98, -S9 mix, 62 µg/plate): 8
- Number of revertant colonies ([2]; TA98, -S9 mix, 185 µg/plate): 8
- Number of revertant colonies ([2]; TA98, -S9 mix, 556 µg/plate): 8
- Number of revertant colonies ([2]; TA98, -S9 mix, 1667 µg/plate): 8
- Number of revertant colonies ([2]; TA98, -S9 mix, 5000 µg/plate): 0
- potential to induce reverse mutations ([2]; TA98 with S9 mix): showed potential to induce reverse mutations
- Number of revertant colonies ([1]; TA1537, +S9 mix, 2.3 µg/plate): 6
- Number of revertant colonies ([1]; TA1537, +S9 mix, 6.9 µg/plate): 7
- Number of revertant colonies ([1]; TA1537, +S9 mix, 21 µg/plate): 7
- Number of revertant colonies ([1]; TA1537, +S9 mix, 62 µg/plate): 9
- Number of revertant colonies ([1]; TA1537, +S9 mix, 185 µg/plate): 9
- Number of revertant colonies ([1]; TA1537, +S9 mix, 556 µg/plate): 4
- Number of revertant colonies ([1]; TA1537, +S9 mix, 1667 µg/plate): 4
- Number of revertant colonies ([1]; TA1537, +S9 mix, 5000 µg/plate): 5
- Number of revertant colonies ([1]; TA1537, -S9 mix, 2.3 µg/plate): 3
- Number of revertant colonies ([1]; TA1537, -S9 mix, 6.9 µg/plate): 1
- Number of revertant colonies ([1]; TA1537, -S9 mix, 21 µg/plate): 3
- Number of revertant colonies ([1]; TA1537, -S9 mix, 62 µg/plate): 3
- Number of revertant colonies ([1]; TA1537, -S9 mix, 185 µg/plate): 2
- Number of revertant colonies ([1]; TA1537, -S9 mix, 556 µg/plate): 0
- Number of revertant colonies ([1]; TA1537, -S9 mix, 1667 µg/plate): 0
- Number of revertant colonies ([1]; TA1537, -S9 mix, 5000 µg/plate): 0
- Number of revertant colonies ([3]; TA100, +S9 mix, 2.34 µg/plate): 526
- Number of revertant colonies ([3]; TA100, +S9 mix, 4.69 µg/plate): 778
- Number of revertant colonies ([3]; TA100, +S9 mix, 9.38 µg/plate): 1210
- Number of revertant colonies ([3]; TA100, +S9 mix, 18.8 µg/plate): 1745
- Number of revertant colonies ([3]; TA100, +S9 mix, 37.5 µg/plate): 2049
- Number of revertant colonies ([3]; TA100, +S9 mix, 75 µg/plate): 2147
- Number of revertant colonies ([3]; TA100, +S9 mix, 150 µg/plate): 2043
- Number of revertant colonies ([3]; TA100, +S9 mix, 300 µg/plate): 1412
- Number of revertant colonies ([3]; TA100, -S9 mix, 2.3 µg/plate): 87
- Number of revertant colonies ([3]; TA100, -S9 mix, 6.9 µg/plate): 99
- Number of revertant colonies ([3]; TA100, -S9 mix, 21 µg/plate): 48
- Number of revertant colonies ([3]; TA100, -S9 mix, 62 µg/plate): 41
- Number of revertant colonies ([3]; TA100, -S9 mix, 185 µg/plate): 45
- Number of revertant colonies ([3]; TA100, -S9 mix, 556 µg/plate): 33
- Number of revertant colonies ([3]; TA100, -S9 mix, 1667 µg/plate): 25
- Number of revertant colonies ([3]; TA100, -S9 mix, 5000 µg/plate): 35
- potential to induce reverse mutations ([3]; TA100 with S9 mix): showed potential to induce reverse mutations
- Number of revertant colonies ([4]; TA1535, +S9 mix, 2.3 µg/plate): 8
- Number of revertant colonies ([4]; TA1535, +S9 mix, 6.9 µg/plate): 8
- Number of revertant colonies ([4]; TA1535, +S9 mix, 21 µg/plate): 5
- Number of revertant colonies ([4]; TA1535, +S9 mix, 62 µg/plate): 4
- Number of revertant colonies ([4]; TA1535, +S9 mix, 185 µg/plate): 5
- Number of revertant colonies ([4]; TA1535, +S9 mix, 556 µg/plate): 4
- Number of revertant colonies ([4]; TA1535, +S9 mix, 1667 µg/plate): 5
- Number of revertant colonies ([4]; TA1535, +S9 mix, 5000 µg/plate): 4
- Number of revertant colonies ([4]; TA1535, -S9 mix, 21 µg/plate): 6
- Number of revertant colonies ([4]; TA1535, -S9 mix, 556 µg/plate): 0
- Number of revertant colonies (Escherichia coli WP2uvrA; +S9 mix, 2.3 µg/plate): 28
- Number of revertant colonies (Escherichia coli WP2uvrA; +S9 mix, 6.9 µg/plate): 23
- Number of revertant colonies (Escherichia coli WP2uvrA; +S9 mix, 21 µg/plate): 21
- Number of revertant colonies (Escherichia coli WP2uvrA; +S9 mix, 62 µg/plate): 26
- Number of revertant colonies (Escherichia coli WP2uvrA; +S9 mix, 185 µg/plate): 17
- Number of revertant colonies (Escherichia coli WP2uvrA; +S9 mix, 556 µg/plate): 8
- Number of revertant colonies (Escherichia coli WP2uvrA; +S9 mix, 1667 µg/plate): 12
- Number of revertant colonies (Escherichia coli WP2uvrA; +S9 mix, 5000 µg/plate): 16
- Number of revertant colonies (Escherichia coli WP2uvrA; -S9 mix, 2.3 µg/plate): 15
- Number of revertant colonies (Escherichia coli WP2uvrA; -S9 mix, 6.9 µg/plate): 16
- Number of revertant colonies (Escherichia coli WP2uvrA; -S9 mix, 21 µg/plate): 17
- Number of revertant colonies (Escherichia coli WP2uvrA; -S9 mix, 62 µg/plate): 13
- Number of revertant colonies (Escherichia coli WP2uvrA; -S9 mix, 185 µg/plate): 13
- Number of revertant colonies (Escherichia coli WP2uvrA; -S9 mix, 556 µg/plate): 13
- Number of revertant colonies (Escherichia coli WP2uvrA; -S9 mix, 1667 µg/plate): 10
- Number of revertant colonies (Escherichia coli WP2uvrA; -S9 mix, 5000 µg/plate): 11

Compound: [N-]=[N+]=[N-].[Na+] [SA]
- Number of revertant colonies ([4]; TA1535, -S9 mix, 0.5 µg/plate (positive control)): 217 and 222
